Data on two molecules can be found in US20030180341A1, “Biocompatible hydrophilic films from polymeric mini-emulsions for application to skin” (priority 2002, published 2003).

Molecules are shown by their SMILES.

Test [1] is described as follows: Antifungal properties of films containing caprylic fatty acid. To be noted: dried film.
Test [2] is described as follows: Antibacterial properties of films and mini-emulsions containing caprylic fatty acid.
A short description of test [3]: Anti-microbial effect of mini-emulsion/film compositions with sodium hypochlorite. As to conditions: provided in the mini-emulsion/film compositions, preferably between about 0.1 and about 0.5% by weight of solids.

`CCCCCCCC(=O)O` [caprylic fatty acid]: the antifungal properties result in test [1] is recorded as “broad spectrum antifungal properties”. In addition, the antibacterial effect entry in test [2] (dried film) is given as “mild antibacterial effect”. In addition, the antibacterial properties entry in test [2] (liquid mini-emulsion) is recorded as “broad spectrum antibacterial properties”.
As to `OCl` [sodium hypochlorite], in test [3], the anti-microbial effect result is on record as “effective as a broad spectrum anti-microbial”.
